These results are taken from patent publication US20240018157A1, “CYCLIC COMPOUNDS AND METHODS OF USING SAME” (Schrödinger, Inc., priority 2019, published 2024).

Test [1] has as its target full-length MALT1 protein His-MALT1(1-824) (Homo sapiens (Human), UniProt Q9UDY8). Briefly: MALT1 protease assay, Assay 2 (1 nM MALT1, Ac-LRSR-AMC substrate). Format: biochemical. The note with it: 1 nM MALT1, 50 μM Ac-LRSR-AMC, 2 h pre-incubation, 8 hr incubation at RT. Here is the method: MALT1 protease activity was assessed in an in vitro assay using a tetrapeptide as substrate and full-length MALT1 protein His-MALT1(1-824) purified from baculovirus-infected insect cells.
The final assay buffer includes 1 nM (Assay 2) or 2 nM (Assay 1) of MALT1 full-length protein, 50 μM Ac-LRSR-AMC substrate, 50 mM Tris pH 7.5, 600 mM Sodium Citrate, 1 mM DTT, 1 mM EDTA, and 0.05% BSA in 384-well plate format using black microtiter square well plates (Optiplate 384-F, Perkin Elmer).
Test compounds were dissolved in 100% DMSO at stock of 10 mM, with final DMSO concentration 0.1%. Test compounds were pre-incubated with MALT1 protein for 2 h at room temperature. Substrate was added after the pre-incubation and fluorescence signal was measured using Envision at excitation 355 nm and emission 460 nm after 8 hr incubation at RT.
The fluorescence units were transformed to percentage of remaining activity by using the high control (HC, median of fluorescence signal from wells containing MALT1 protein, substrate, and DMSO) and low control (LC, median of fluorescence signal from wells with substrate only) with the formula below: […]
IC50 and Hill coefficient were obtained using Graph Pad Prism (Graph Pad software, Inc, USA) with non-linear regression analysis.

Test [2] deals with IL10 secretion, OCI-LY10 cells. Description: Human IL10 secretion assay, Assay 1 (HTRF). The note with it: 24 h incubation, read-out: IL-10 Secretion IC50 [nM] Assay 1. It counts as cell-based. Here is the method: (§1) IL10 is one of the cytokines that are regulated via activation of NF-kB signaling. For example, in ABC-DLBCL cell lines, the activated NF-kB signaling leads to increased IL10 secretion. Inhibition of NF-kB signaling has been shown leading to decreased IL10 secretion.
Assay 1: OCI-LY10 cells were seeded in IMEM supplemented with 20% fetal bovine serum at 3×10^5 cells per well in 96-well round bottom plates (Corning 3799, Corning), treated with 100 nL of 3-fold serial compound dilutions, starting at 10 mM. The final vehicle concentration was 0.1% DMSO in all wells. After 24 h incubation, the cells were transferred to 96-PCR plates (Axygen: PCR-96-FLT-C) and centrifuged, then 16 μL of cell culture media was transferred to HTRF plates and IL10 levels were measured using human IL-10 Assay Kits (Cisbio) using HTRF format. The signals were transformed to percentage of remaining activity by using the high control (HC, median of signal from wells containing cells treated with DMSO) and low control (LC, median of signal from wells with no cells). IC50 values (nM) were determined using 4-parametric curve-fitting and Hill coefficient were obtained using Graph Pad Prism (Graph Pad software, Inc, USA) with non-linear regression analysis.
(In general: TR-FRET usually uses a lanthanide donor and a delayed reading to cut background.)

Test [3] deals with IL10 secretion, OCI-LY10 cells. Description: Human IL10 secretion assay, Assay 2 (Meso Scale Discovery). To be noted: 24 h incubation, MSD, read-out: IL-10 Secretion IC50 [nM] Assay 2. Format: cell-based. The protocol: as §1
Assay 2: OCI-LY10 cells were seeded in IMEM supplemented with 20% fetal bovine serum at 4.8×10^5 cells per 160 μL per well in 96-well V-bottom cell culture plates (coming, 3894), treated with 120 nL of 3-fold serial compound dilutions, starting at 4 mM. The final vehicle concentration was 0.075% DMSO in all wells. After a 24 h incubation, human IL-10 pre-coated plates (Meso Scale Discovery) were washed 3 times with PBST, and 50 μL culture medium was aspirated into the MSD plate and incubated at 4° C. overnight. The supernatant was then discarded and the wells were washed 3 times with PBST. SULFO-TAG Anti-human IL-10 Antibody (50×) was diluted 50 fold according to the Meso Scale Protocol, then 25 μL of SULFO-TAG Anti-human IL-10 Antibody (1×) was added. After 2 h of incubation at RT, the supernatant was discarded and the well was washed 3 times with PBST. 2× read buffer was added and the signal was read on an MSD Sector S600. The effect of a particular compound on IL10 secretion is shown relative to the effect of DMSO; set as 100%. IC50 values (nM) were determined using 4-parametric curve-fitting.

SMILES strings stand for the structures. Where a name gives a salt, the structure may show the parent alone.

Chain of full-length MALT1 protein His-MALT1(1-824) (Q9UDY8 whole entry): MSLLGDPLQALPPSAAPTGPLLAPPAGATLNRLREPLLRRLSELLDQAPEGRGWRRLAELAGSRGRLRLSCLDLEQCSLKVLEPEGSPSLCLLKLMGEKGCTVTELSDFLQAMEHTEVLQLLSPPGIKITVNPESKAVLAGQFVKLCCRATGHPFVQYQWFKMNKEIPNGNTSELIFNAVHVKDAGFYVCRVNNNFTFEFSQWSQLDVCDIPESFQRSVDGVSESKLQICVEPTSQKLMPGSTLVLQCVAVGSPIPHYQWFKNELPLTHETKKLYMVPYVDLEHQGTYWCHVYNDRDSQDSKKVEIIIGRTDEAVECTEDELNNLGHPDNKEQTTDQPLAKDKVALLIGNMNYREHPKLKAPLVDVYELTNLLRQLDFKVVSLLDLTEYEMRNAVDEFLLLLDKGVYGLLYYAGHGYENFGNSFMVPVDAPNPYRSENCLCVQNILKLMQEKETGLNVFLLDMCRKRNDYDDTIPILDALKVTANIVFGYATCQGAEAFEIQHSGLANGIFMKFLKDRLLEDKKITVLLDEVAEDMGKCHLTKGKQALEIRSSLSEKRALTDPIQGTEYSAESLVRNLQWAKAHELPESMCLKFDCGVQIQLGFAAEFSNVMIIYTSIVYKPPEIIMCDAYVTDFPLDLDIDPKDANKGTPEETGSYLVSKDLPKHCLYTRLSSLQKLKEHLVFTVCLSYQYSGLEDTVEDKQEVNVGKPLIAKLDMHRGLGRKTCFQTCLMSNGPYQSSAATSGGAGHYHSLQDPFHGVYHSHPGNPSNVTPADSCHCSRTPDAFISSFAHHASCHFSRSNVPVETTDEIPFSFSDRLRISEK

On to `CC1(C(F)(F)F)CN(C(=O)Nc2cnc(-n3nccn3)c(Cl)c2)c2cnc3cc(C(F)F)nn3c21` (centres unmarked) [Compound 62], for which the half-inhibitory concentration (IC50) in test [1] and in test [2] was 10 to 100 nM each time.
`C[C@@]1(C(F)(F)F)CN(C(=O)Nc2cnc(-n3nccn3)c(C(F)F)c2)c2cnc3cc(Cl)nn3c21` [compound 35, (R)-2-chloro-N-(5-(difluoromethyl)-6-(2H-1,2,3-triazol-2-yl)pyridin-3-yl)-8-methyl-8-(trifluoromethyl)-7,8-dihydro-6H-pyrazolo[1,5-a]pyrrolo[2,3-e]pyrimidine-6-carboxamide]: the 50% inhibitory concentration (IC50) in test [3] and in test [2] was 10 to 100 nM in each case.
As for `C[C@@]1(C(F)(F)F)CN(C(=O)Nc2cnc(-n3nccn3)c(Cl)c2)c2cnc3cc(F)nn3c21` [compound 39, (R)-N-(5-chloro-6-(2H-1,2,3-triazol-2-yl)pyridin-3-yl)-2-fluoro-8-methyl-8-(trifluoromethyl)-7,8-dihydro-6H-pyrazolo[1,5-a]pyrrolo[2,3-e]pyrimidine-6-carboxamide], the concentration for half-maximal inhibition (IC50) in test [3] and in test [2] was 10 to 100 nM in each case.
Consider `C[C@@]1(C(F)(F)F)CN(C(=O)Nc2cnc(-n3nccn3)c(C(F)(F)F)c2)c2cnc3cc(Cl)nn3c21` [compound 40, (R)-N-(6-(2H-1,2,3-triazol-2-yl)-5-(trifluoromethyl)pyridin-3-yl)-2-chloro-8-methyl-8-(trifluoromethyl)-7,8-dihydro-6H-pyrazolo[1,5-a]pyrrolo[2,3-e]pyrimidine-6-carboxamide], for which the IC50 in test [3] and in test [2] was 10 to 100 nM in each case.
For the compound `C[C@@]1(C(F)(F)F)CN(C(=O)Nc2cnc(OC(F)F)c(Cl)c2)c2cnc3cc(Cl)nn3c21` [compound 49, (R)-2-chloro-N-(5-chloro-6-(difluoromethoxy)pyridin-3-yl)-8-methyl-8-(trifluoromethyl)-7,8-dihydro-6H-pyrazolo[1,5-a]pyrrolo[2,3-e]pyrimidine-6-carboxamide], the half-inhibitory concentration (IC50) in test [3] and in test [2] was 10 to 100 nM each time.
For the compound `C[C@@]1(C(F)(F)F)CN(C(=O)Nc2cnnc(C(F)(F)F)c2)c2cnc3cc(Cl)nn3c21` [compound 59, (R)-11-chloro-3-methyl-3-(trifluoromethyl)-N-[6-(trifluoromethyl)pyridazin-4-yl]-1,5,8,12-tetrazatricyclo[7.3.0.02,6]dodeca-2(6),7,9,11-tetraene-5-carboxamide], the half-inhibitory concentration (IC50) in test [1] and in test [2] was 10 to 100 nM throughout.
As for `C[C@@]1(C(F)(F)F)CN(C(=O)Nc2cc(C#N)nc(C(F)(F)F)c2)c2cnc3cc(Cl)nn3c21` [compound 61, (R)-2-chloro-N-(2-cyano-6-(trifluoromethyl)pyridin-4-yl)-8-methyl-8-(trifluoromethyl)-7,8-dihydro-6H-pyrazolo[1,5-a]pyrrolo[2,3-e]pyrimidine-6-carboxamide], the half-maximal inhibitory concentration (IC50) in test [1] lay within 10 to 100 nM; in test [2], 100 to 1000 nM.
The like results for `C[C@@]1(C(F)(F)F)CN(C(=O)Nc2cnn(C(F)F)c2)c2cnc3cc(Cl)nn3c21` [compound 64, (R)-2-chloro-N-(1-(difluoromethyl)-1H-pyrazol-4-yl)-8-methyl-8-(trifluoromethyl)-7,8-dihydro-6H-pyrazolo[1,5-a]pyrrolo[2,3-e]pyrimidine-6-carboxamide] were, in that order, 10 to 100 nM and 10 to 100 nM.
In the same order, the values of `C[C@@]1(C(F)(F)F)CN(C(=O)Nc2cnc(C(O)C3CC3)c(Cl)c2)c2cnc3cc(Cl)nn3c21` (stereo partly drawn) [compound 72, (8R)-2-chloro-N-(5-chloro-6-(cyclopropyl(hydroxy)methyl)pyridin-3-yl)-8-methyl-8-(trifluoromethyl)-7,8-dihydro-6H-pyrazolo[1,5-a]pyrrolo[2,3-e]pyrimidine-6-carboxamide] are 10 to 100 nM and 100 to 1000 nM.
In the same order, the values of `C[C@H](O)COc1ncc(NC(=O)N2C[C@@](C)(C(F)(F)F)c3c2cnc2cc(Cl)nn32)cc1Cl` [compound 73, (R)-2-chloro-N-(5-chloro-6-((S)-2-hydroxypropoxy)pyridin-3-yl)-8-methyl-8-(trifluoromethyl)-7,8-dihydro-6H-pyrazolo[1,5-a]pyrrolo[2,3-e]pyrimidine-6-carboxamide] are 10 to 100 nM and 10 to 100 nM.
Consider `COc1c(C)cc(NC(=O)N2C[C@@](C)(C(F)(F)F)c3c2cnc2cc(Cl)nn32)nc1O[C@H]1CCNC1` [compound 82, (R)-2-chloro-N-(5-methoxy-4-methyl-6-(((S)-pyrrolidin-3-yl)oxy)pyridin-2-yl)-8-methyl-8-(trifluoromethyl)-7,8-dihydro-6H-pyrazolo[1,5-a]pyrrolo[2,3-e]pyrimidine-6-carboxamide formate], for which the IC50 in test [1] fell in the range of 10 to 100 nM; in test [2], 100 to 1000 nM.
`C[C@H]1COC(=O)N1c1cc(NC(=O)N2C[C@@](C)(C(F)(F)F)c3c2cnc2cc(Cl)nn32)cc(C(F)(F)F)n1` [compound 84, (R)-2-chloro-8-methyl-N-(2-((S)-4-methyl-2-oxooxazolidin-3-yl)-6-(trifluoromethyl)pyridine-4-yl)-8-(trifluoromethyl)-7,8-dihydro-6H-pyrazolo[1,5-a]pyrrolo[2,3-e]pyrimidine-6-carboxamide]: the IC50 fell in the range of 10 to 100 nM in test [1] and 100 to 1000 nM in test [2].
Turning to `C[C@@]1(C(F)(F)F)CN(C(=O)Nc2cnc(-n3nccn3)c(C#N)c2)c2cnc3cc(F)nn3c21` [compound 91, (R)-N-(5-cyano-6-(2H-1,2,3-triazol-2-yl)pyridin-3-yl)-2-fluoro-8-methyl-8-(trifluoromethyl)-7,8-dihydro-6H-pyrazolo[1,5-a]pyrrolo[2,3-e]pyrimidine-6-carboxamide], the IC50 in test [3] is 10 to 100 nM.
Same read-out and setting: as for `COc1cnn(-c2ncc(NC(=O)N3C[C@@](C)(C(F)(F)F)c4c3cnc3cc(Cl)nn43)cc2Cl)n1` [compound 92, (R)-2-chloro-N-(5-chloro-6(4-methoxy-2H-1,2,3-triazol-2-yl)pyridin-3-yl)-8-methyl-8-(trifluoromethyl)-7,8-dihydro-6H-pyrazolo[1,5-a]pyrrolo[2,3-e]pyrimidine-6-carboxamide], the figure is 10 to 100 nM.
Turning to `CN(C)C(=O)c1ncc(NC(=O)N2C[C@@](C)(C(F)(F)F)c3c2cnc2cc(Cl)nn32)cc1C(F)F` [compound 122, (R)-2-chloro-N-(5-(difluoromethyl)-6-(dimethylcarbamoyl)pyridin-3-yl)-8-methyl-8-(trifluoromethyl)-7,8-dihydro-6H-pyrazolo[1,5-a]pyrrolo[2,3-e]pyrimidine-6-carboxamide], the IC50 in test [3] and in test [2] was 10 to 100 nM each time.
With `Cc1cc(NC(=O)N2C[C@@](C)(C(F)(F)F)c3c2cnc2cc(F)nn32)cnc1-n1nccn1` [compound 125, (R)-2-fluoro-8-methyl-N-(5-methyl-6-(2H-1,2,3-triazol-2-yl)pyridin-3-yl)-8-(trifluoromethyl)-7,8-dihydro-6H-pyrazolo[1,5-a]pyrrolo[2,3-e]pyrimidine-6-carboxamide], the IC50 in test [3] and in test [2] was 10 to 100 nM each time.
For `CCN(C)C(=O)c1ncc(NC(=O)N2C[C@@](C)(C(F)(F)F)c3c2cnc2cc(Cl)nn32)cc1C(F)F` [compound 149, (R)-2-chloro-N-(5-(difluoromethyl)-6-(ethyl(methyl)carbamoyl)pyridin-3-yl)-8-methyl-8-(trifluoromethyl)-7,8-dihydro-6H-pyrazolo[1,5-a]pyrrolo[2,3-e]pyrimidine-6-carboxamide], the IC50 in test [3] and in test [2] was 10 to 100 nM in each case.

By IC50 is commonly meant the midpoint of a concentration-inhibition curve.
